Results reported in US10894817B2, “Fatty acid modified urocortin-2 analogs for the treatment of diabetes and chronic kidney disease” (priority 2016, dated 2021).
Read-outs that look alike come from different tables or passages of the source. Starred links: 1 amine or outer side, 2 acyl side, 3 side chain; linkers in the order of their positions; H or OH if unused. Non-standard residues stand in square brackets, D forms with d. Residues, ends and D or L forms follow the SMILES beside them. Groups on a side chain read outwards from the residue. *: point of attachment. C20 diacid = O=C(O)CCCCCCCCCCCCCCCCCCC(=O)*; C18 diacid = O=C(O)CCCCCCCCCCCCCCCCC(=O)*; γGlu = O=C(O)[C@H](CCC(=O)[*:2])N[*:1]; NMeI = CC[C@H](C)[C@H](NC)C(=O)O; AEEA = NCCOCCOCC(=O)O

Target: T1, human CRHR2b (Homo sapiens, UniProt Q13324)
T1 construct: expressed in transfected cells; host or cells: Chinese Hamster Ovary (CHO) cells, transient transfection
T1 sequence (Q13324 1-438 isoform Q13324-2): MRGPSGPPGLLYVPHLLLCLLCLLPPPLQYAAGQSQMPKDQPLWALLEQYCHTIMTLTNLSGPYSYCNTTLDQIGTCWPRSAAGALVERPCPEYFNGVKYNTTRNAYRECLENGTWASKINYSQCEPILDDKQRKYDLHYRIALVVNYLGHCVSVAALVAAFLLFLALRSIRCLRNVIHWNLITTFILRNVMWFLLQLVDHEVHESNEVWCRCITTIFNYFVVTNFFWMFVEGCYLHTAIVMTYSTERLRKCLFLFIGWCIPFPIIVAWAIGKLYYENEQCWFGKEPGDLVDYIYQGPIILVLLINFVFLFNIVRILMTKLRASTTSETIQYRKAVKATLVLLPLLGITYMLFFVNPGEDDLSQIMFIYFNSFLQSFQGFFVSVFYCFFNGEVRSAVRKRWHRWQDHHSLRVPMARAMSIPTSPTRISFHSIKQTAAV
Test: human CRHR2b cell-based cAMP assay
Method in brief: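 ED50 values are means ± SEM over several runs, curve-fitted from cAMP in pmol, calibrated against unlabeled-cAMP standards. Detection was HTRF competition, ratio 665/620 nm, after 30 min agonist exposure at 37 °C.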

[1] = cAMP assay, Table 26, compounds of Example 9, read-out: hCRHR2b Average EC50

Row | SMILES | EC50 [nM] | EC50 [1] [nM]
1 | CC[C@H](C)[C@H](N)C(=O)N[C@H](C(=O)N[C@@H](CC(C)C)C(=O)N[C@@H](CO)C(=O)N[C@@H](CC(C)C)C(=O)N[C@@H](CC(=O)O)C(=O)N[C@H](C(=O)N1CCC[C@H]1C(=O)N[C@H](C(=O)NCC(=O)N[C@@H](CC(C)C)C(=O)N[C@@H](CC(C)C)C(=O)N[C@@H](CCC(N)=O)C(=O)N[C@H](C(=O)N[C@@H](CC(C)C)C(=O)N[C@@H](CC(C)C)C(=O)N[C@@H](CCCCNC(=O)COCCOCCNC(=O)COCCOCCNC(=O)CC[C@H](NC(=O)CC[C@H](NC(=O)CCCCCCCCCCCCCCCCC(=O)O)C(=O)O)C(=O)O)C(=O)N[C@@H](CCC(N)=O)C(=O)N[C@@H](CCC(=O)O)C(=O)N[C@@H](CCCCN)C(=O)N[C@@H](CCC(N)=O)C(=O)N[C@@H](CCC(=O)O)C(=O)N[C@@H](CCCCN)C(=O)N[C@@H](CCC(=O)O)C(=O)N[C@@H](CCCCN)C(=O)N[C@@H](CCC(N)=O)C(=O)N[C@@H](CCC(N)=O)C(=O)N[C@@H](C)C(=O)N[C@H](C(=O)N[C@@H](CCC(=O)O)C(=O)N[C@@H](CC(N)=O)C(=O)N[C@@H](C)C(=O)N[C@@H](CCC(N)=O)C(=O)N[C@H](C(=O)N[C@@H](CC(C)C)C(=O)N[C@@H](C)C(=O)N[C@@H](CCC(N)=O)C(=O)N[C@H](C(N)=O)C(C)C)[C@@H](C)CC)[C@@H](C)O)[C@@H](C)CC)[C@@H](C)CC)C(C)C)C(C)C [Compound 53] (H-IVLSLDVPIGLLQILLK([AEEA-AEEA-γGlu-γGlu-C18 diacid])QEKQEKEKQQATENAQILAQV-NH2) | 4.01 | 
2 | CC[C@H](C)[C@H](N)C(=O)N[C@H](C(=O)N[C@@H](CC(C)C)C(=O)N[C@@H](CO)C(=O)N[C@@H](CC(C)C)C(=O)N[C@@H](CC(=O)O)C(=O)N[C@H](C(=O)N1CCC[C@H]1C(=O)N[C@H](C(=O)NCC(=O)N[C@@H](CC(C)C)C(=O)N[C@@H](CC(C)C)C(=O)N[C@@H](CCC(N)=O)C(=O)N[C@H](C(=O)N[C@@H](CC(C)C)C(=O)N[C@@H](CC(C)C)C(=O)N[C@@H](CCC(=O)O)C(=O)N[C@@H](CCC(N)=O)C(=O)N[C@@H](CCC(=O)O)C(=O)N[C@@H](CCCCN)C(=O)N[C@@H](CCC(N)=O)C(=O)N[C@@H](CCC(=O)O)C(=O)N[C@@H](CCCCN)C(=O)N[C@@H](CCC(=O)O)C(=O)N[C@@H](CCCCN)C(=O)N[C@@H](CCCCNC(=O)COCCOCCNC(=O)COCCOCCNC(=O)CC[C@H](NC(=O)CC[C@H](NC(=O)CCCCCCCCCCCCCCCCC(=O)O)C(=O)O)C(=O)O)C(=O)N[C@@H](CCC(N)=O)C(=O)N[C@@H](C)C(=O)N[C@H](C(=O)N[C@@H](CCC(=O)O)C(=O)N[C@@H](CC(N)=O)C(=O)N[C@@H](C)C(=O)N[C@@H](CCC(N)=O)C(=O)N[C@H](C(=O)N[C@@H](CC(C)C)C(=O)N[C@@H](C)C(=O)N[C@@H](CCC(N)=O)C(=O)N[C@H](C(N)=O)C(C)C)[C@@H](C)CC)[C@@H](C)O)[C@@H](C)CC)[C@@H](C)CC)C(C)C)C(C)C [Compound 54] (H-IVLSLDVPIGLLQILLEQEKQEKEKK([AEEA-AEEA-γGlu-γGlu-C18 diacid])QATENAQILAQV-NH2) |  | 4.26
3 | CC[C@H](C)[C@H](N)C(=O)N[C@H](C(=O)N[C@@H](CC(C)C)C(=O)N[C@@H](CO)C(=O)N[C@@H](CC(C)C)C(=O)N[C@@H](CC(=O)O)C(=O)N[C@H](C(=O)N1CCC[C@H]1C(=O)N[C@H](C(=O)NCC(=O)N[C@@H](CC(C)C)C(=O)N[C@@H](CC(C)C)C(=O)N[C@@H](CCC(N)=O)C(=O)N[C@H](C(=O)N[C@@H](CC(C)C)C(=O)N[C@@H](CC(C)C)C(=O)N[C@@H](CCC(=O)O)C(=O)N[C@@H](CCC(N)=O)C(=O)N[C@@H](CCC(=O)O)C(=O)N[C@@H](CCCCN)C(=O)N[C@@H](CCC(N)=O)C(=O)N[C@@H](CCC(=O)O)C(=O)N[C@@H](CCCCN)C(=O)N[C@@H](CCC(=O)O)C(=O)N[C@@H](CCCCN)C(=O)N[C@@H](CCC(N)=O)C(=O)N[C@@H](CCC(N)=O)C(=O)N[C@@H](C)C(=O)N[C@@H](CCCCNC(=O)COCCOCCNC(=O)COCCOCCNC(=O)CC[C@H](NC(=O)CC[C@H](NC(=O)CCCCCCCCCCCCCCCCC(=O)O)C(=O)O)C(=O)O)C(=O)N[C@@H](CCC(=O)O)C(=O)N[C@@H](CC(N)=O)C(=O)N[C@@H](C)C(=O)N[C@@H](CCC(N)=O)C(=O)N[C@H](C(=O)N[C@@H](CC(C)C)C(=O)N[C@@H](C)C(=O)N[C@@H](CCC(N)=O)C(=O)N[C@H](C(N)=O)C(C)C)[C@@H](C)CC)[C@@H](C)CC)[C@@H](C)CC)C(C)C)C(C)C [Compound 55] (H-IVLSLDVPIGLLQILLEQEKQEKEKQQAK([AEEA-AEEA-γGlu-γGlu-C18 diacid])ENAQILAQV-NH2) |  | 1.51
4 | CC[C@H](C)[C@H](NC)C(=O)N[C@H](C(=O)N[C@@H](CC(C)C)C(=O)N[C@@H](CO)C(=O)N[C@@H](CC(C)C)C(=O)N[C@@H](CC(=O)O)C(=O)N[C@H](C(=O)N1CCC[C@H]1C(=O)N[C@H](C(=O)NCC(=O)N[C@@H](CC(C)C)C(=O)N[C@@H](CC(C)C)C(=O)N[C@@H](CCC(N)=O)C(=O)N[C@H](C(=O)N[C@@H](CC(C)C)C(=O)N[C@@H](CC(C)C)C(=O)N[C@@H](CCC(=O)O)C(=O)N[C@@H](CCC(N)=O)C(=O)N[C@@H](CCC(=O)O)C(=O)N[C@@H](CCCCN)C(=O)N[C@@H](CCC(N)=O)C(=O)N[C@@H](CCC(=O)O)C(=O)N[C@@H](CCCCN)C(=O)N[C@@H](CCC(=O)O)C(=O)N[C@@H](CCCCN)C(=O)N[C@@H](CCC(N)=O)C(=O)N[C@@H](CCC(N)=O)C(=O)N[C@@H](C)C(=O)N[C@@H](CCCCNC(=O)COCCOCCNC(=O)CC[C@H](NC(=O)CC[C@H](NC(=O)CCCCCCCCCCCCCCCCCCC(=O)O)C(=O)O)C(=O)O)C(=O)N[C@@H](CCC(=O)O)C(=O)N[C@@H](CC(N)=O)C(=O)N[C@@H](C)C(=O)N[C@@H](CCC(=O)O)C(=O)N[C@H](C(=O)N[C@@H](CC(C)C)C(=O)N[C@@H](C)C(=O)N[C@@H](CCC(N)=O)C(=O)N[C@H](C(N)=O)C(C)C)[C@@H](C)CC)[C@@H](C)CC)[C@@H](C)CC)C(C)C)C(C)C [Compound 57] (H-[NMeI]VLSLDVPIGLLQILLEQEKQEKEKQQAK([AEEA-γGlu-γGlu-C20 diacid])ENAEILAQV-NH2) |  | 3.65
5 | CC[C@H](C)[C@H](NC)C(=O)N[C@H](C(=O)N[C@@H](CC(C)C)C(=O)N[C@@H](CO)C(=O)N[C@@H](CC(C)C)C(=O)N[C@@H](CC(=O)O)C(=O)N[C@H](C(=O)N1CCC[C@H]1C(=O)N[C@H](C(=O)NCC(=O)N[C@@H](CC(C)C)C(=O)N[C@@H](CC(C)C)C(=O)N[C@@H](CCC(N)=O)C(=O)N[C@H](C(=O)N[C@@H](CC(C)C)C(=O)N[C@@H](CC(C)C)C(=O)N[C@@H](CCC(=O)O)C(=O)N[C@@H](CCC(N)=O)C(=O)N[C@@H](CCC(=O)O)C(=O)N[C@@H](CCCCN)C(=O)N[C@@H](CCC(N)=O)C(=O)N[C@@H](CCC(=O)O)C(=O)N[C@@H](CCCCN)C(=O)N[C@@H](CCC(=O)O)C(=O)N[C@@H](CCCCN)C(=O)N[C@@H](CCC(N)=O)C(=O)N[C@@H](CCC(N)=O)C(=O)N[C@@H](C)C(=O)N[C@@H](CCCCNC(=O)CC[C@H](NC(=O)CC[C@H](NC(=O)CCCCCCCCCCCCCCCCCCC(=O)O)C(=O)O)C(=O)O)C(=O)N[C@@H](CCC(=O)O)C(=O)N[C@@H](CC(N)=O)C(=O)N[C@@H](C)C(=O)N[C@@H](CCC(=O)O)C(=O)N[C@H](C(=O)N[C@@H](CC(C)C)C(=O)N[C@@H](C)C(=O)N[C@@H](CCC(N)=O)C(=O)N[C@H](C(N)=O)C(C)C)[C@@H](C)CC)[C@@H](C)CC)[C@@H](C)CC)C(C)C)C(C)C [Compound 58] (H-[NMeI]VLSLDVPIGLLQILLEQEKQEKEKQQAK([γGlu-γGlu-C20 diacid])ENAEILAQV-NH2) |  | 3.79
6 | CC[C@H](C)[C@H](NC)C(=O)N[C@H](C(=O)N[C@@H](CC(C)C)C(=O)N[C@@H](CO)C(=O)N[C@@H](CC(C)C)C(=O)N[C@@H](CC(=O)O)C(=O)N[C@H](C(=O)N1CCC[C@H]1C(=O)N[C@H](C(=O)NCC(=O)N[C@@H](CC(C)C)C(=O)N[C@@H](CC(C)C)C(=O)N[C@@H](CCC(N)=O)C(=O)N[C@H](C(=O)N[C@@H](CC(C)C)C(=O)N[C@@H](CC(C)C)C(=O)N[C@@H](CCC(=O)O)C(=O)N[C@@H](CCC(N)=O)C(=O)N[C@@H](CCC(=O)O)C(=O)N[C@@H](CCCCN)C(=O)N[C@@H](CCC(N)=O)C(=O)N[C@@H](CCC(=O)O)C(=O)N[C@@H](CCCCN)C(=O)N[C@@H](CCC(=O)O)C(=O)N[C@@H](CCCCN)C(=O)N[C@@H](CCC(N)=O)C(=O)N[C@@H](CCC(N)=O)C(=O)N[C@@H](C)C(=O)N[C@@H](CCCCNC(=O)CC[C@H](NC(=O)COCCOCCNC(=O)CC[C@H](NC(=O)CC[C@H](NC(=O)CCCCCCCCCCCCCCCCCCC(=O)O)C(=O)O)C(=O)O)C(=O)O)C(=O)N[C@@H](CCC(=O)O)C(=O)N[C@@H](CC(N)=O)C(=O)N[C@@H](C)C(=O)N[C@@H](CCC(=O)O)C(=O)N[C@H](C(=O)N[C@@H](CC(C)C)C(=O)N[C@@H](C)C(=O)N[C@@H](CCC(N)=O)C(=O)N[C@H](C(N)=O)C(C)C)[C@@H](C)CC)[C@@H](C)CC)[C@@H](C)CC)C(C)C)C(C)C [Compound 59] (H-[NMeI]VLSLDVPIGLLQILLEQEKQEKEKQQAK([γGlu-AEEA-γGlu-γGlu-C20 diacid])ENAEILAQV-NH2) |  | 2.62
